# Legend:
# IDO1 [1] = molecular target: T1, IDO1 (Homo sapiens (Human), UniProt P14902); experiment: IDO1 Cellular Assay in Hela Cells Stimulated with IFNγ; assay type: cell-based; details: about 48 hours, read-out: IDO1 HELA Cell Assay, IC50
# Experimental: Hela cells were cultured in complete Hela culture medium (90% EMEM, 10% heat-inactivated fetal bovine serum) and expanded to about 1×10^9 cells. The cells were then collected and frozen down at 10×10^6 cells/vial in 1 mL frozen medium (90% complete Hela culture medium, 10% DMSO)
# Compounds to be tested were serially diluted in ten 3-fold steps in DMSO starting from 10 mM DMSO stocks in Echo low volume plate(s). Compound dilutions or DMSO alone were then dispensed from the dilution plate(s) into Greiner black 384-well assay plate(s) (catalog #781086, 50 nL/well) using an Echo 550 acoustic liquid handler (Labcyte).
# Frozen Hela cells were thawed and transferred into Hela assay medium (99% complete Hela culture medium, 1% Pen/Strep) with 20 mL medium/vial of cells. The cells were spun down at 250 g in a table top centrifuge for 5 min and suspended in same volume of Hela assay medium. The cells were then counted and adjusted to a density of 2×10^5 cells/ml in Hela assay medium. Sterile L-tryptophan were added to the cells with final concentration of 300 uM L-tryptophan. A small aliquot (2 mL/plate) of Hela cells were set aside and were not treated with IFNγ, to serve as the Max-E control. The rest of Hela cells were added with sterile IFNγ (Cat #285-IF, R & D systems) with a final concentration of 100 ng/mL.
# Hela cells with and without IFNγ were dispensed to the respective wells of 384-well assay plates containing the compounds. The plates were incubated for about 48 hours at a 37° C., 5% CO2 incubator. Afterwards, 12 μL of 0.5 M methyl isonipecotate in dimethyl sulfoxide were added into each well and the plates were sealed and incubated at 37° C. without CO2 overnight. The plates were centrifuged for 1 min at 200×g. The resulting fluorescence was measured in a Spectramax plate reader (Molecular Devices) with a 400 nm excitation filter and a 510 nm emission filter.
# The fluorescence intensity of each well was corrected for the background observed in wells with non-IFNγ-treated cells and was expressed as a fraction of the intensity observed in wells of IFNγ-treated cells and DMSO only. Potencies were calculated by linear least squares fit to the four parameter logistic IC50 equation.
# Target sequence in this assay (P14902 whole entry): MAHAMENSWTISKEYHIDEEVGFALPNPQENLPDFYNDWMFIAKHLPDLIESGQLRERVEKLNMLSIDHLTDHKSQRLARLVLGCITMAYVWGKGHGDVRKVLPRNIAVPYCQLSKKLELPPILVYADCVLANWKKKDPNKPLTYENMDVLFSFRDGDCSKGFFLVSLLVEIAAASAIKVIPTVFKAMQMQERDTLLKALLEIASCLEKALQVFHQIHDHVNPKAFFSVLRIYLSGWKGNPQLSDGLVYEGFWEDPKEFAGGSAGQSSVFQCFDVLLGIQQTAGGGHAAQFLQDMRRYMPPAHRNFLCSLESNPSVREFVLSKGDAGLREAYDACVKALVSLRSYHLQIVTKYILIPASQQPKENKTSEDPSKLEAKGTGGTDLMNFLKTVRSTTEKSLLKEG
# IDO1 [2] = molecular target: T1, IDO1; experiment: IDO1 Enzyme Assay; assay type: biochemical; details: HIS-tagged recombinant IDO1, fluorescence readout
# Experimental: Compounds to be tested were serially diluted in ten 3-fold steps in DMSO starting from 10 mM DMSO stocks. Compound dilutions or DMSO alone were then dispensed from the dilution plate into a Greiner black 384-well assay plate (catalog #781086) using an Echo 555 acoustic liquid handler (Labcyte).
# HIS-tagged IDO1 protein was recombinantly expressed in Escherichia coli using ZYP5052 autoinduction media supplemented with 500 μM delta aminolevulinic acid for 48 h at 16° C. IDO1 protein was purified using Ni^2+-affinity resin and size exclusion chromatography. Purified protein was then diluted in assay buffer (50 mM Tris pH 7.0, 1% glycerol, 20 μM methylene blue, 0.05% Tween-20, 20 mM sodium ascorbate, 100 units/mL catalase to obtain a final IDO1 concentration of 40 nM. IDO1 solution […] or buffer alone ([…]) were dispensed to wells of the assay plate using a BioRAPTR liquid dispenser (Beckman Coulter). Assay plates containing compound and IDO1 enzyme were incubated at RT for 30 min. Afterwards, 10 μL of 400 μM tryptophan in assay buffer were added to each well of the assay plate using a BioRAPTR liquid dispenser. Plates were incubated at RT for 60 min and reactions were quenched by addition of 10 μL of 0.5 M methyl isonipecotate in dimethyl sulfoxide. Plates were sealed and incubated at 37° C. for 4 h or 50° C. for 2 h. The plates are allowed to cool and then centrifuged for 1 min at 1000×g. The resulting fluoresence was measured in an Envision plate reader (Perkin Elmer) with a 400/25 nm excitation filter and an 510/20 nm emission filter.
# Potencies were calculated by linear least squares fit to the four parameter logistic IC50 equation.
# Target sequence in this assay (P14902 whole entry, species assumed): as the sequence (P14902 whole entry) above
IC50 (IDO1 [1]),IC50 (IDO1 [2]),SMILES
30.5 nM,43.5 nM,"N=S(=O)(CCO)CCNc1nonc1/C(=N/O)N[C@H]1Cc2ccc(F)cc21 (single isomer, unassigned) [Example 8]"
95.5 nM,58.2 nM,"CS(=N)(=O)CCNC(=O)CNc1nonc1/C(=N/O)N[C@H]1Cc2ccc(F)cc21 (single isomer, unassigned) [Example 13]"
103 nM,63.8 nM,"CS(=N)(=O)CCNC(=O)CNc1nonc1/C(=N/O)N[C@H]1Cc2ccc(F)cc21 (single isomer, unassigned) [Example 14]"
69.9 nM,68.3 nM,"CS(=N)(=O)N1CCC(Nc2nonc2/C(=N/O)N[C@H]2Cc3ccc(F)cc32)CC1 (single isomer, unassigned) [Example 18]"
62.1 nM,67.2 nM,"CS(=N)(=O)N1CCC(Nc2nonc2/C(=N/O)N[C@H]2Cc3ccc(F)cc32)CC1 (single isomer, unassigned) [Example 19]"
81.5 nM,137 nM,"N=S1(=O)CCC1CNc1nonc1/C(=N/O)N[C@H]1Cc2ccc(F)cc21 (single isomer, unassigned) [Example 22]"
99.4 nM,143 nM,"N=S1(=O)CCC1CNc1nonc1/C(=N/O)N[C@H]1Cc2ccc(F)cc21 (single isomer, unassigned) [Example 23]"
39.9 nM,35.4 nM,"CS(=N)(=O)CCCNc1nonc1/C(=N/O)N[C@H]1Cc2ccc(F)cc21 (single isomer, unassigned) [Example 24]"
42.7 nM,31.2 nM,"CS(=N)(=O)CCCNc1nonc1/C(=N/O)N[C@H]1Cc2ccc(F)cc21 (single isomer, unassigned) [Example 25]"
99.9 nM,53.7 nM,"CS(=N)(=O)CC(O)CNc1nonc1/C(=N/O)N[C@H]1Cc2ccc(F)cc21 (single isomer, unassigned) [Example 26]"
129 nM,43.3 nM,"CS(=N)(=O)CC(O)CNc1nonc1/C(=N/O)N[C@H]1Cc2ccc(F)cc21 (single isomer, unassigned) [Example 27]"
110 nM,60.7 nM,"CS(=N)(=O)CC(O)CNc1nonc1/C(=N/O)N[C@H]1Cc2ccc(F)cc21 (single isomer, unassigned) [Example 28]"
123 nM,70.4 nM,"CS(=N)(=O)CC(O)CNc1nonc1/C(=N/O)N[C@H]1Cc2ccc(F)cc21 (single isomer, unassigned) [Example 29]"
384 nM,231 nM,"C[S@@](=N)(=O)CCCOc1nonc1/C(=N/O)NC1Cc2ccc(F)cc21 (single isomer, unassigned) [Example 30]"
356 nM,213 nM,"C[S@@](=N)(=O)CCCOc1nonc1/C(=N/O)NC1Cc2ccc(F)cc21 (single isomer, unassigned) [Example 31]"
241 nM,178 nM,"CS(=N)(=O)CCCCOc1nonc1/C(=N/O)N[C@H]1Cc2ccc(F)cc21 (single isomer, unassigned) [Example 32]"
288 nM,184 nM,"CS(=N)(=O)CCCCOc1nonc1/C(=N/O)N[C@H]1Cc2ccc(F)cc21 (single isomer, unassigned) [Example 33]"
77 nM,59.8 nM,"CN=S(C)(=O)CCNc1nonc1/C(=N/O)N[C@H]1Cc2ccc(F)cc21 (single isomer, unassigned) [Example 34]"
43.2 nM,81.6 nM,"CN=S(C)(=O)CCNc1nonc1/C(=N/O)N[C@H]1Cc2ccc(F)cc21 (single isomer, unassigned) [Example 35]"
312 nM,108 nM,"CS(=N)(=O)N1CC(O)(CNc2nonc2/C(=N/O)N[C@H]2Cc3ccc(F)cc32)C1 (single isomer, unassigned) [Example 37]"

IC50 (IDO1 [1]),IC50 (IDO1 [2]),SMILES
26.7 nM,47.2 nM,"CS(=N)(=O)CCCCNc1nonc1/C(=N/O)N[C@H]1Cc2ccc(F)cc21 (single isomer, unassigned) [Example 38]"
35.7 nM,50.8 nM,"CS(=N)(=O)CCCCNc1nonc1/C(=N/O)N[C@H]1Cc2ccc(F)cc21 (single isomer, unassigned) [Example 39]"
43.6 nM,56.8 nM,"CS(=N)(=O)N1CC(Oc2nonc2/C(=N/O)N[C@H]2Cc3ccc(F)cc32)C1 (single isomer, unassigned) [Example 42]"
157 nM,169 nM,"CS(=N)(=O)N1CCC(Nc2nonc2/C(=N/O)N[C@H]2Cc3ccc(F)cc32)C1 (single isomer, unassigned) [Example 43]"
219 nM,220 nM,"CS(=N)(=O)N1CCC(Nc2nonc2/C(=N/O)N[C@H]2Cc3ccc(F)cc32)C1 (single isomer, unassigned) [Example 44]"
85 nM,107 nM,"CS(=N)(=O)N1CCC(Nc2nonc2/C(=N/O)N[C@H]2Cc3ccc(F)cc32)C1 (single isomer, unassigned) [Example 45]"
153 nM,175 nM,"CS(=N)(=O)N1CCC(Nc2nonc2/C(=N/O)N[C@H]2Cc3ccc(F)cc32)C1 (single isomer, unassigned) [Example 46]"
196 nM,154 nM,"CS(=N)(=O)CCOCCNc1nonc1/C(=N/O)N[C@H]1Cc2ccc(F)cc21 (single isomer, unassigned) [Example 47]"
144 nM,119 nM,"CS(=N)(=O)CCOCCNc1nonc1/C(=N/O)N[C@H]1Cc2ccc(F)cc21 (single isomer, unassigned) [Example 48]"
99.5 nM,112 nM,"CS(=N)(=O)CC(=O)N1CC(Oc2nonc2/C(=N/O)N[C@H]2Cc3ccc(F)cc32)C1 (single isomer, unassigned) [Example 49]"
153 nM,111 nM,"CS(=N)(=O)CC(=O)N1CC(Oc2nonc2/C(=N/O)N[C@H]2Cc3ccc(F)cc32)C1 (single isomer, unassigned) [Example 50]"
317 nM,262 nM,"CS(=N)(=O)NCCOc1nonc1/C(=N/O)N[C@H]1Cc2ccc(F)cc21 (single isomer, unassigned) [Example 51]"
148 nM,175 nM,"CS(=N)(=O)NCCOc1nonc1/C(=N/O)N[C@H]1Cc2ccc(F)cc21 (single isomer, unassigned) [Example 52]"
117 nM,92.9 nM,"CS(=N)(=O)NCC(O)CNc1nonc1/C(=N\O)N[C@H]1Cc2ccc(F)cc21 (single isomer, unassigned) [Example 55]"
162 nM,107 nM,"CS(=N)(=O)NCC(O)CNc1nonc1/C(=N\O)N[C@H]1Cc2ccc(F)cc21 (single isomer, unassigned) [Example 56]"
109 nM,70.6 nM,"CS(=O)(CCNc1nonc1/C(=N\O)N[C@H]1Cc2ccc(F)cc21)=NCCO (single isomer, unassigned) [Example 57]"
123 nM,125 nM,"CS(=O)(CCNc1nonc1/C(=N\O)N[C@H]1Cc2ccc(F)cc21)=NCCO (single isomer, unassigned) [Example 58]"
129 nM,120 nM,"CS(=N)(=O)N1CCO[C@@H](CNc2nonc2/C(=N\O)N[C@H]2Cc3ccc(F)cc32)C1 (single isomer, unassigned) [Example 59]"
329 nM,234 nM,"CS(=N)(=O)N1CCO[C@@H](CNc2nonc2/C(=N\O)N[C@H]2Cc3ccc(F)cc32)C1 (single isomer, unassigned) [Example 60]"

# Reference: patent publication US10927086B2, “Substituted sulfoximine compounds as indoleamine 2,3-dioxygenase (IDO) inhibitors” (Merck Sharp & Dohme Corp., priority 2017, dated 2021)
